pIC50: −log10 of the molar value.
Target: Recombinant human c-Src (Homo sapiens (Human), UniProt P12931)
Experiment: Src kinase inhibition in vitro (luciferase-based residual ATP, KinaseGlo)
Assay type: biochemical
Settings: ATP 3 μM, PTK2 substrate, 90 minutes at room temperature
Method: The ability of compounds of the present invention to inhibit the activity of three groups of kinases was tested. Kinases tested included the src family (primarily src and yes), some angiogenic growth factor receptors (Fgfr1, Vegfr, and Pdgfrβ) and the ephrin, EphB4. All kinase reactions were conducted in 96-well plates with a final reaction volume of 50 ul.
After reacting for about 90 minutes at room temperature, residual ATP was determined using a luciferase-based assay (KinaseGlo, Promega Corp.) as a measure of kinase activity. Data from four wells were then averaged and used to determine IC50 values for the test compounds (Prism software package, GraphPad Software, San Diego Calif.).
The test results for inhibition of Src kinase are presented in Table 1, and the test results for inhibition of some other kinases (i.e., Yes, EphB4, and Pdgfrβ) are presented in Table 2.

Chain of Recombinant human c-Src (P12931 whole entry, looked up): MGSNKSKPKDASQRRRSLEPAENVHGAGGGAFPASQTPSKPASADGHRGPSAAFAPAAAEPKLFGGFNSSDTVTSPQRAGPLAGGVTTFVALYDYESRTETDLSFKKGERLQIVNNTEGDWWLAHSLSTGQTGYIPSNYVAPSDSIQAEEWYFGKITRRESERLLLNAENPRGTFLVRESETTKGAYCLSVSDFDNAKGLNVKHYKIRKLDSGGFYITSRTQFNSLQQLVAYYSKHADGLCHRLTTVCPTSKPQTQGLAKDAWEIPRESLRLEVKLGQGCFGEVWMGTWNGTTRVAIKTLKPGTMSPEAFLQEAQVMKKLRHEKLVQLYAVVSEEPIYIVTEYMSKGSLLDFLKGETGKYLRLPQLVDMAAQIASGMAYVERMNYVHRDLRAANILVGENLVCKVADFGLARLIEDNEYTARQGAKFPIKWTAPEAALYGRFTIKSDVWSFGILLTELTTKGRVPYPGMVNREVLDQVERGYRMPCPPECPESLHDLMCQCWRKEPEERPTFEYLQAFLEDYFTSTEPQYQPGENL

| Compound | pIC50 |
| --- | --- |
| CNc1cccc(-c2cc(C)c3nc(Nc4ccc(S(=O)(=O)NCCN5CCCC5)cc4)nnc3c2)c1 [4-[5-methyl-7-(3-methylamino-phenyl)-benzo[1,2,4]triazin-3-ylamino]-N-(2-pyrrolidin-1-yl-ethyl)-benzenesulfonamide] | 6.20 |
| Cc1cc(-c2c(Cl)cccc2Cl)cc2nnc(Nc3ccc(S(=O)(=O)NCCN4CCCC4)cc3)nc12 [4-[7-(2,6-dichloro-phenyl)-5-methyl-benzo[1,2,4]triazin-3-ylamino]-N-(2-pyrrolidin-1-yl-ethyl)-benzenesulfonamide] | 7.85 |
| Cc1cc(-c2c(O)cccc2Cl)cc2nnc(Nc3ccc(S(=O)(=O)NCCN4CCCC4)cc3)nc12 [4-(7-(2-chloro-6-hydroxyphenyl)-5-methylbenzo[e][1,2,4]triazin-3-ylamino)-N-(2-(pyrrolidin-1-yl)ethyl)benzensulfonamide] | 7.90 |
| Cc1cccc(C)c1-c1cc(C)c2nc(Nc3cccc(S(=O)(=O)N4CCNCC4)c3)nnc2c1 [[7-(2,6-dimethyl-phenyl)-5-methyl-benzo[1,2,4]triazin-3-yl]-[3-(piperazine-1-sulfonyl)-phenyl]-amine] | 7.32 |
| COc1ccc(Nc2nnc3cc(-c4c(C)cccc4C)cc(C)c3n2)cc1 [(4-methoxy-phenyl)-[7-(2,6-dimethyl-phenyl)-5-methyl-benzo[1,2,4]triazin-3-yl]-amine] | 6.85 |
| Cc1cc(N2CCCCC2)cc2nnc(Nc3cccnc3)nc12 [(5-methyl-7-piperidin-1-yl-benzo[1,2,4]triazin-3-yl)-pyridin-3-yl-amine] | < 5.00 |
| Cc1cccc(C)c1-c1ccc2nc(Nc3ccc(OCCN4CCCC4)cc3)nnc2c1 [[7-(2,6-dimethyl-phenyl)-benzo[1,2,4]triazin-3-yl]-[4-(2-pyrrolidin-1-yl-ethoxy)-phenyl]-amine] | 7.82 |
| Cc1cc2nc(Nc3ccc(S(=O)(=O)NCCN4CCCC4)cc3)nnc2cc1Br [[7-Bromo-6-methyl-benzo[1,2,4]triazin-3-ylamino]-N-(2-pyrrolidin-1-yl-ethyl)-benzene-4-sulfonamide] | < 5.00 |
| Cc1cc(-c2ccccn2)cc2nnc(Nc3ccc(OCCN4CCCC4)cc3)nc12 [(5-methyl-7-pyridin-2-yl-benzo[1,2,4]triazin-3-yl)-[4-(2-pyrrolidin-1-yl-ethoxy)-phenyl]-amine] | 5.74 |
| Cc1cc(-c2cc(OC(=O)c3ccccc3)ccc2Cl)cc2nnc(Nc3ccc(OCCN4CCCC4)cc3)nc12 [Benzoic acid 4-chloro-3-{5-methyl-3-[4-(2-pyrrolidin-1-yl-ethoxy)-phenylamino]-benzo[1,2,4]triazin-7-yl}-phenyl ester] | < 5.00 |
| CC(=O)Nc1nnc2cc(-c3c(C)cccc3C)cc(C)c2n1 [N-[7-(2,6-dimethyl-phenyl)-5-methyl-benzo[1,2,4]triazin-3-yl]-acetamide] | < 5.00 |
| Cc1cc2nc(Nc3ccc(OCCN4CCCC4)cc3)nnc2cc1-c1c(C)cccc1C [[7-(2,6-dimethyl-phenyl)-6-methyl-benzo[1,2,4]triazin-3-yl]-[4-(2-pyrrolidin-1-yl-ethoxy)-phenyl]-amine] | 7.91 |
| COc1ccccc1Nc1nnc2cc(-c3c(C)cccc3C)cc(C)c2n1 [(2-methoxy-phenyl)-[7-(2,6-dimethyl-phenyl)-5-methyl-benzo[1,2,4]triazin-3-yl]-amine] | < 4.00 |
| CNc1cc(-c2c(C)cccc2C)cc2nnc(Nc3ccc(OCCN4CCCC4)cc3)nc12 [7-(2,6-dimethyl-phenyl)-N5-methyl-N3-[4-(2-pyrrolidin-1-yl-ethoxy)-phenyl]-benzo[1,2,4]triazine-3,5-diamine] | 7.97 |
| Cc1cccc(C)c1-c1cc(C)c2nc(Nc3ccc(OCCCN4CCCC4)cc3)nnc2c1 [[7-(2,6-dimethyl-phenyl)-5-methyl-benzo[1,2,4]triazin-3-yl]-{4-(3-pyrrolidin-1-yl-propoxy)-phenyl]-amine] | 7.90 |
| Cc1cccc(C)c1-c1cc(C)c2nc(Nc3ccncc3)nnc2c1 [[7-(2,6-dimethyl-phenyl)-5-methyl-benzo[1,2,4]triazin-3-yl]-pyridine-4-yl-amine] | 7.44 |
| CCCCc1ccc(Nc2nnc3cc(-c4c(C)cccc4C)cc(C)c3n2)cc1 [(4-butyl-phenyl)-[7-(2,6-dimethyl-phenyl)-5-methyl-benzo[1,2,4]triazin-3-yl]-amine] | < 4.00 |
| Cc1cccc(C)c1-c1cc(C)c2nc(Nc3ccc(N(C)C)cc3)nnc2c1 | 6.61 |
| Cc1cc(-c2cccc(N)c2)cc2nnc(Nc3ccc(S(=O)(=O)NCCN4CCCC4)cc3)nc12 [4-[7-(3-amino-phenyl)-5-methyl-benzo[1,2,4]triazin-3-ylamino]-N-(2-pyrrolidin-1-yl-ethyl)-benzenesulfonamide] | 6.55 |
| Cc1cccc(C)c1-c1cc(C)c2nc(Nc3cccc(Cl)c3)nnc2c1 [(3-chloro-phenyl)-[7-(2,6-dimethyl-phenyl)-5-methyl-benzo[1,2,4]triazin-3-yl]-amine] | 6.87 |
| Cc1cccc(C)c1-c1cc(C)c2nc(NC(=O)c3ccccc3)nnc2c1 [N-[7-(2,6-dimethyl-phenyl)-5-methyl-benzo[1,2,4]triazin-3-yl]-benzamide] | 5.74 |
| COc1ccc(Cl)cc1-c1cc(C)c2nc(Nc3ccc(OCCN4CCCC4)cc3)nnc2c1 [[7-(5-chloro-2-methoxy-phenyl)-5-methyl-benzo[1,2,4]triazin-3-yl]-[4-(2-pyrrolidin-1-yl-ethoxy)-phenyl]-amine] | 5.92 |
| Cc1cccc(C)c1-c1cc2nnc(Nc3ccccc3)nc2c(C)c1C [[7-(2,6-dimethyl-phenyl)-5,6-dimethyl-benzo[1,2,4]triazin-3-yl]-phenyl-amine] | 6.89 |
| Cc1ccc(Nc2nnc3cc(-c4c(C)cccc4C)cc(C)c3n2)c(C)c1 [(2,4-dimethyl-phenyl)-[7-(2,6-dimethyl-phenyl)-5-methyl-benzo[1,2,4]triazin-3-yl]-amine] | < 5.00 |
| Cc1cccc(C)c1-c1cc(N)c2nc(Nc3ccc(OCCN4CCCC4)cc3)nnc2c1 [7-(2,6-dimethyl-phenyl)-N3-[4-(2-pyrrolidin-1-yl-ethoxy)-phenyl]-benzo[1,2,4]triazine-3,5-diamine] | 8.01 |
| Cc1cc(-c2cc(N)ccc2Cl)cc2nnc(Nc3ccc(S(=O)(=O)NCCN4CCCC4)cc3)nc12 [4-[7-(5-amino-2-chloro-phenyl)-5-methyl-benzo[1,2,4]triazin-3-ylamino]-N-(2-pyrrolidin-1-yl-ethyl)-benzenesulfonamide] | 7.29 |

The remaining lines, values ahead:

| pIC50 | Compound |
| --- | --- |
| 7.14 | Cc1cc2nc(Nc3ccc(S(=O)(=O)NCCN4CCCC4)cc3)nnc2cc1-c1ccccc1CO [4-[7-(2-Hydroxymethyl-phenyl)-6-methyl-benzo[1,2,4]triazin-3-ylamino]-N-(2-pyrrolidin-1-yl-ethyl)-benzenesulfonamide] |
| 6.86 | Cc1cccc(C)c1-c1cc(C)c2nc(Nc3ccc(S(=O)(=O)N4CCN(C)CC4)cc3)nnc2c1 [[7-(2,6-dimethyl-phenyl)-5-methyl-benzo[1,2,4]triazin-3-yl]-[4-(4-methyl-piperazine-1-sulfonyl)-phenyl]-amine] |
| 5.54 | Cc1cc(-c2cccc(NS(C)(=O)=O)c2)cc2nnc(Nc3ccc(S(=O)(=O)NCCN4CCCC4)cc3)nc12 [4-[7-(3-methanesulfonylamino-phenyl)-5-methyl-benzo[1,2,4]triazin-3-ylamino]-N-(2-pyrrolidin-1-yl-ethyl)-benzenesulfonamide] |
| 6.30 | COc1cccc(Cl)c1-c1cc(C)c2nc(Nc3ccc(OCCN4CCCC4)cc3)nnc2c1 [[7-(2-chloro-6-methoxy-phenyl)-5-methyl-benzo[1,2,4]triazin-3-yl]-[4-(2-pyrrolidin-1-yl-ethoxy)-phenyl]-amine] |
| 7.60 | Cc1ccc(C#N)cc1-c1cc(C)c2nc(Nc3ccc(S(=O)(=O)NCCN4CCCC4)cc3)nnc2c1 |
| 6.50 | Cc1cc2nc(Nc3ccc(S(=O)(=O)NCCN4CCCC4)cc3)nnc2cc1-c1ccccc1 [4-(6-methyl-7-phenyl-benzo[1,2,4]triazin-3-ylamino)-N-(2-pyrrolidin-1-yl-ethyl)-benzenesulfonamide] |
| < 5.00 | Cc1cc(C)c(-c2cc(C)c3nc(Nc4ccccc4)nnc3c2)c(C)c1 [[5-methyl-7-(2,4,6-trimethyl-phenyl)-benzo[1,2,4]triazin-3-yl]-phenyl-amine] |
| 6.10 | COc1ccc(Cl)c(-c2cc(C)c3nc(Nc4ccc(OCCN5CCCC5)cc4)nnc3c2)c1 [[7-(2-chloro-5-methoxy-phenyl)-5-methyl-benzo[1,2,4]triazin-3-yl]-[4-(2-pyrrolidin-1-yl-ethoxy)-phenyl]-amine] |
| < 5.00 | Cc1cccc(C)c1-c1cc(C)c2nc(Nc3cccc4cccnc34)nnc2c1 [[7-(2,6-dimethyl-phenyl)-5-methyl-benzo[1,2,4]triazin-3-yl]-quinolin-8-yl-amine] |
| 6.97 | CCOc1ccc(Nc2nnc3cc(-c4c(C)cccc4C)cc(C)c3n2)cc1 [(4-ethoxy-phenyl)-[7-(2,6-dimethyl-phenyl)-5-methyl-benzo[1,2,4]triazin-3-yl]-amine] |
| < 5.00 | Cc1cccc(Nc2nnc3cc(-c4c(C)cccc4C)cc(C)c3n2)c1C [(2,3-dimethyl-phenyl)-[7-(2,6-dimethyl-phenyl)-5-methyl-benzo[1,2,4]triazin-3-yl]-amine] |
| 6.92 | Clc1cccc(Cl)c1-c1ccc2nc(Nc3ccc(OCCN4CCCC4)cc3)nnc2c1 [[7-(2,6-dichloro-phenyl)-benzo[1,2,4]triazin-3-yl]-[4-(2-pyrrolidin-1-yl-ethoxy)-phenyl]-amine] |
| 6.68 | Cc1noc(C)c1-c1cc(C)c2nc(Nc3ccc(OCCN4CCCC4)cc3)nnc2c1 [[7-(3,5-dimethyl-isoxazol-4-yl)-5-methyl-benzo[1,2,4]triazin-3-yl]-[4-(2-pyrrolidin-1-yl-ethoxy)-phenyl]-amine] |

From US8481536B2, “Benzotriazine inhibitors of kinases” (TargeGen, Inc., priority 2004, dated 2013)
